From ChEMBL document CHEMBL3885861, “Open TG-GATES”

Species: Rattus norvegicus
Test: Open TG-GATES - Regimen: Daily Repeat
Assay type: toxicity, organism-based, Sprague-Dawley
Set-up: regimen Daily Repeat, gender Male, age 6 weeks
Conditions: in vivo, po, 100 mg/kg, route gavage, dose level Middle; for APTT / Bas / Eos / Fbg / Hb / Ht / Lym / MCH / MCHC / MCV / Mono / Neu / PT / Plat / RBC / Ret / WBC: tissue Blood; for KIDNEY_L / KIDNEY_R / KIDNEY_TOTAL: tissue Kidney; for LIVER: tissue Liver; for A/G / ALP / ALT / AST / BUN / CRE / Ca / Cl / DBIL / GLC / IP / K / LDH / Na / PL / RALB / TBIL / TC / TG / TP / gamma-GTP: tissue Plasma

In the case of `CC(=O)Nc1ccc2c(c1)Cc1ccccc1-2` [2-ACETYLAMINOFLUORENE], the TERMINAL_BW (72 h, time 3 day) is reported as 202.9 g, the APTT (72 h, time 3 day) is reported as 20.1 s and the Bas (72 h, time 3 day) is reported as 0.8%. It also gave an Eos (72 h, time 3 day) of 0.8%, a Fbg (72 h, time 3 day) of 260.6 mg/dL and a Hb (72 h, time 3 day) of 15.7 g/dL. For the same molecule, the Ht (72 h, time 3 day) was 45.1%, the Lym (72 h, time 3 day) was 72.4% and the MCH (72 h, time 3 day) was 21.9 pg. For the same molecule, the MCHC (72 h, time 3 day) was 34.9%, the MCV (72 h, time 3 day) was 62.7 fL and the Mono (72 h, time 3 day) was 2.8%. The Neu (72 h, time 3 day) was 22.4%, the PT (72 h, time 3 day) was 12.7 s and the Plat (72 h, time 3 day) was 133.7 x10_4/uL. It also gave an RBC (72 h, time 3 day) of 718.2 x10_4/ul, a Ret (72 h, time 3 day) of 3.6% and a WBC (72 h, time 3 day) of 85 x10_2/uL. The KIDNEY_L (72 h, time 3 day) was 1 g, the KIDNEY_R (72 h, time 3 day) was 0.9 g and the KIDNEY_TOTAL (72 h, time 3 day) was 1.9 g. It also gave an LIVER (72 h, time 3 day) of 8.8 g, an A/G (72 h, time 3 day) of 1.4 and an ALP (72 h, time 3 day) of 615.4 IU/L. For the same molecule, the ALT (72 h, time 3 day) was 24 IU/L, the AST (72 h, time 3 day) was 70.8 IU/L and the BUN (72 h, time 3 day) was 11.4 mg/dL. The CRE (72 h, time 3 day) was 0.4 mg/dL, the Ca (72 h, time 3 day) was 10.1 mg/dL and the Cl (72 h, time 3 day) was 104.4 meq/L. The DBIL (72 h, time 3 day) was 0.076 mg/dL, the GLC (72 h, time 3 day) was 191 mg/dL and the IP (72 h, time 3 day) was 8.2 mg/dL. The K (72 h, time 3 day) was 4.3 meq/L, the LDH (72 h, time 3 day) was 220.8 IU/L and the Na (72 h, time 3 day) was 141.6 meq/L. The PL (72 h, time 3 day) was 86.2 mg/dL, the RALB (72 h, time 3 day) was 2.9 g/dL and the TBIL (72 h, time 3 day) was 0.1 mg/dL. For the same molecule, the TC (72 h, time 3 day) was 45.4 mg/dL, the TG (72 h, time 3 day) was 47.6 mg/dL and the TP (72 h, time 3 day) was 5 g/dL. The gamma-GTP (72 h, time 3 day) was 1.2 IU/L, the TERMINAL_BW ([…], time 7 day) was 214.1 g and the TERMINAL_BW ([…], time 14 day) was 247.1 g. It also gave a TERMINAL_BW ([…], time 28 day) of 286 g, an APTT ([…], time 7 day) of 20.2 s and a Bas ([…], time 7 day) of 0.8%. For the same molecule, the Eos ([…], time 7 day) was 0.6%, the Fbg ([…], time 7 day) was 167.8 mg/dL and the Hb ([…], time 7 day) was 14.7 g/dL. For the same molecule, the Ht ([…], time 7 day) was 41.6%, the Lym ([…], time 7 day) was 83% and the MCH ([…], time 7 day) was 20.5 pg. The MCHC ([…], time 7 day) was 35.3%, the MCV ([…], time 7 day) was 58.1 fL and the Mono ([…], time 7 day) was 2.8%. For the same molecule, the Neu ([…], time 7 day) was 12.2%, the PT ([…], time 7 day) was 13.8 s and the Plat ([…], time 7 day) was 174.6 x10_4/uL. For the same molecule, the RBC ([…], time 7 day) was 715.8 x10_4/ul, the Ret ([…], time 7 day) was 1.2% and the WBC ([…], time 7 day) was 106.3 x10_2/uL. The APTT ([…], time 14 day) was 18.3 s, the Bas ([…], time 14 day) was 0.8% and the Eos ([…], time 14 day) was 0%. The Fbg ([…], time 14 day) was 106.8 mg/dL, the Hb ([…], time 14 day) was 13.1 g/dL and the Ht ([…], time 14 day) was 38.5%. The Lym ([…], time 14 day) was 74.6%, the MCH ([…], time 14 day) was 19.7 pg and the MCHC ([…], time 14 day) was 34.1%. For the same molecule, the MCV ([…], time 14 day) was 57.7 fL, the Mono ([…], time 14 day) was 3% and the Neu ([…], time 14 day) was 21%. For the same molecule, the PT ([…], time 14 day) was 15.2 s, the Plat ([…], time 14 day) was 144.4 x10_4/uL and the RBC ([…], time 14 day) was 667 x10_4/ul. It also gave a Ret ([…], time 14 day) of 6.3%, a WBC ([…], time 14 day) of 169.9 x10_2/uL and an APTT ([…], time 28 day) of 22.1 s. The Bas ([…], time 28 day) was 0.2%, the Eos ([…], time 28 day) was 0% and the Fbg ([…], time 28 day) was 74.4 mg/dL. It also gave a Hb ([…], time 28 day) of 13.6 g/dL, a Ht ([…], time 28 day) of 40.8% and a Lym ([…], time 28 day) of 61.6%. For the same molecule, the MCH ([…], time 28 day) was 20.5 pg, the MCHC ([…], time 28 day) was 33.4% and the MCV ([…], time 28 day) was 61.3 fL. The Mono ([…], time 28 day) was 2.8%, the Neu ([…], time 28 day) was 34.2% and the PT ([…], time 28 day) was 18.8 s. It also gave a Plat ([…], time 28 day) of 149.9 x10_4/uL, an RBC ([…], time 28 day) of 667.6 x10_4/ul and a Ret ([…], time 28 day) of 6.6%. It also gave a WBC ([…], time 28 day) of 220.7 x10_2/uL, a KIDNEY_L ([…], time 7 day) of 1 g and a KIDNEY_R ([…], time 7 day) of 0.9 g. The KIDNEY_TOTAL ([…], time 7 day) was 1.9 g, the KIDNEY_L ([…], time 14 day) was 1.1 g and the KIDNEY_R ([…], time 14 day) was 1.1 g. For the same molecule, the KIDNEY_TOTAL ([…], time 14 day) was 2.2 g, the KIDNEY_L ([…], time 28 day) was 1.3 g and the KIDNEY_R ([…], time 28 day) was 1.3 g. For the same molecule, the KIDNEY_TOTAL ([…], time 28 day) was 2.5 g, the LIVER ([…], time 7 day) was 9.2 g and the LIVER ([…], time 14 day) was 10.6 g. The LIVER ([…], time 28 day) was 11.7 g, the A/G ([…], time 7 day) was 1.5 and the ALP ([…], time 7 day) was 822.2 IU/L. It also gave an ALT ([…], time 7 day) of 33.8 IU/L, an AST ([…], time 7 day) of 83.4 IU/L and a BUN ([…], time 7 day) of 11.4 mg/dL. For the same molecule, the CRE ([…], time 7 day) was 0.4 mg/dL, the Ca ([…], time 7 day) was 9.8 mg/dL and the Cl ([…], time 7 day) was 105.4 meq/L. For the same molecule, the DBIL ([…], time 7 day) was 0.098 mg/dL, the GLC ([…], time 7 day) was 170.6 mg/dL and the IP ([…], time 7 day) was 6 mg/dL. It also gave a K ([…], time 7 day) of 4.1 meq/L, an LDH ([…], time 7 day) of 274.8 IU/L and a Na ([…], time 7 day) of 139.8 meq/L. It also gave a PL ([…], time 7 day) of 93 mg/dL, an RALB ([…], time 7 day) of 2.6 g/dL and a TBIL ([…], time 7 day) of 0.2 mg/dL. The TC ([…], time 7 day) was 37.6 mg/dL, the TG ([…], time 7 day) was 75.2 mg/dL and the TP ([…], time 7 day) was 4.4 g/dL. For the same molecule, the gamma-GTP ([…], time 7 day) was 1 IU/L, the A/G ([…], time 14 day) was 1.3 and the ALP ([…], time 14 day) was 791.2 IU/L. The ALT ([…], time 14 day) was 41 IU/L, the AST ([…], time 14 day) was 83.6 IU/L and the BUN ([…], time 14 day) was 13.6 mg/dL. The CRE ([…], time 14 day) was 0.5 mg/dL, the Ca ([…], time 14 day) was 9.6 mg/dL and the Cl ([…], time 14 day) was 103.4 meq/L. It also gave a DBIL ([…], time 14 day) of 0.6 mg/dL, a GLC ([…], time 14 day) of 157 mg/dL and an IP ([…], time 14 day) of 7.8 mg/dL. It also gave a K ([…], time 14 day) of 4.1 meq/L, an LDH ([…], time 14 day) of 206 IU/L and a Na ([…], time 14 day) of 141 meq/L. For the same molecule, the PL ([…], time 14 day) was 104.8 mg/dL, the RALB ([…], time 14 day) was 2.3 g/dL and the TBIL ([…], time 14 day) was 0.7 mg/dL. The TC ([…], time 14 day) was 43.4 mg/dL, the TG ([…], time 14 day) was 64.6 mg/dL and the TP ([…], time 14 day) was 4.1 g/dL. The gamma-GTP ([…], time 14 day) was 2 IU/L, the A/G ([…], time 28 day) was 1.1 and the ALP ([…], time 28 day) was 1005.4 IU/L. The ALT ([…], time 28 day) was 58.8 IU/L, the AST ([…], time 28 day) was 126.6 IU/L and the BUN ([…], time 28 day) was 12.4 mg/dL. The CRE ([…], time 28 day) was 0.4 mg/dL, the Ca ([…], time 28 day) was 8.9 mg/dL and the Cl ([…], time 28 day) was 104.6 meq/L. The DBIL ([…], time 28 day) was 1.2 mg/dL, the GLC ([…], time 28 day) was 146 mg/dL and the IP ([…], time 28 day) was 6.7 mg/dL. The K ([…], time 28 day) was 3.9 meq/L, the LDH ([…], time 28 day) was 264.4 IU/L and the Na ([…], time 28 day) was 141 meq/L. The PL ([…], time 28 day) was 128.8 mg/dL, the RALB ([…], time 28 day) was 2 g/dL and the TBIL ([…], time 28 day) was 1.6 mg/dL. For the same molecule, the TC ([…], time 28 day) was 55.4 mg/dL, the TG ([…], time 28 day) was 76.2 mg/dL and the TP ([…], time 28 day) was 3.9 g/dL. For the same molecule, the gamma-GTP ([…], time 28 day) was 9.6 IU/L.
